We go through two compounds from patent publication US6465451B1, “Hypolipidemic benzothiazepine compounds” (SmithKline Beecham Corporation, priority 1998, dated 2002).

The test system of one series is male Spraque-Dawley rats. Description: Percent cholesterol lowering in rats fed a cholesterol-cholic acid enriched diet. In kind it is in vivo, rat. The note with it: gavage b.i.d. for 3 days and once on day four, hypercholesterolemic rats, serum lipids four hours after last dose. The method, then:
(II) Percent Cholesterol Lowering in Rats
Hypercholesterolemia was induced in male Spraque-Dawley rats (CD, Charles River weighing 200-300 g) by administration of a diet enriched in cholesterol and cholic acid. The diet was prepared from Wayne Laboratory Lab Blocks ground into meal and mechanically mixed with powdered cholesterol and cholic acid to a final concentration (by weight) of 1% and 0.5%, respectively. Prior to administration of the diet, blood was collected under halothane anesthesia by cardiac puncture to determine baseline lipid levels. Serum was obtained for analysis of total cholesterol (TC), high density lipoprotein cholesterol (HDL-C), and dextran-precipitable lipoprotein-cholesterol (VLDL+LDL). The rats were divided into groups so that each group had similar baseline serum lipid levels. Five days following the initial sampling for serum lipids the rats were fed ab lib the cholesterol-cholic acid enriched diet and compound administration was begun. The compound was administered by gavage as a suspension in 0.5% methylcellulose (1 ml/100 g body weight) b.i.d. at 9:00 a.m. and 3:00 p.m. for 3 days and at 9:00 a.m. on day four. Control animals received 0.5% methylcellulose only. The rats were bleed four hours after the last dose for the determination of serum lipids. All blood collections were done after a 4-h fast. Serum TC concentrations were determined enzymatically using reagents obtained from Seragen Diagnostics (2). Serum HDL-C was determined after selective precipitation of VLDL and LDL with dextran sulfate and magnesium sulfate, with reagents from Seragen (3). HDL-C was determined in the supernatant. VLDL+LDL cholesterol was determined as the difference between total and HDL-C. The following results were obtained for Example 1 and Example A, as defined above.

The target of series [1] is T1, ileal bile acid active uptake system (Rattus norvegicus, UniProt Q62633).
T1 construct: from tissue; host or cells: whole animal (rat ileum, in vivo)
T1 sequence (Q62633 1-348): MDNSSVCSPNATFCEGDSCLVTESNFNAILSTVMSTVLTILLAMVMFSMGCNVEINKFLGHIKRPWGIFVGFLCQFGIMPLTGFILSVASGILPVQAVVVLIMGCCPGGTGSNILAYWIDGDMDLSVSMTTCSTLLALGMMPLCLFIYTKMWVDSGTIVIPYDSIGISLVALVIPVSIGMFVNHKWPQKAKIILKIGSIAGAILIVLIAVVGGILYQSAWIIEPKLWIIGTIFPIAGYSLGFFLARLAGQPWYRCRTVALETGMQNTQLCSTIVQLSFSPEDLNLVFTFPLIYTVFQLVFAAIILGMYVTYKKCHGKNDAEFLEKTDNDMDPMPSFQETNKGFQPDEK
Kind of series: In vivo inhibition of bile acid reabsorption (75SeHCAT, rat). The settings on record: male Spraque-Dawley rats, oral gavage twice daily for two days, fecal 75SeHCAT over 24 hours, n=12 total. The method, then:
(I) In vivo Inhibition of Bile Acid Reabsorption
Male Spraque-Dawley rats (CD, Charles River) weighing 220-260 gm were housed in individual cages and fed normal chow. The rats were dosed by oral gavage (1 ml/100 gm body weight) with test compounds as a suspension in 0.5% methylcellulose at 9:00 a.m. and 3:30 p.m. for two days. The control group received 0.5% methylcellose. Two hours after the morning dose on day two, the rats were given a trace amount (1.3 nmoles) of 23,25−^75Se-homocholic acid taurine (^75SeHCAT) in 1.0 ml saline orally. ^75SeHCAT, a synthetic gamma emitting bile acid analog which is absorbed by the ileal bile acid active uptake system similar to taurocholic acid, has been used clinically as a measure of ileal bile acid absorption. Feces were collected over the 24 hours following ^75SeHCAT administration. Fecal content of ^75SeHCAT was determined using a Packard Auto-Gamma 5000 Series gamma-counter. The % inhibition of bile acid reabsorption is calculated as follows: [formula]
The percent of inhibition of bile acid reabsorption in the rat using ^75SeHCAT was used to determine the ED30 (the dose required to give 30% inhibition of bile acid uptake). […]

What is called melting point is the temperature, or range, at which the solid turns liquid. In turn, `CCCC[C@@]1(CC)CN(c2ccccc2)c2cc(Cl)c(O)cc2S(=O)(=O)C1` [Example 1, (3S)-2,3,4,5-Tetrahydro-3-ethyl-3-butyl-5-phenyl-7-chloro-8-hydroxy-1,5-benzothiazepine-1,1-dioxide] had a melting point of 179.6 to 180.2 °C. The Percent cholesterol lowering in the series on male Spraque-Dawley rats (dose 0.03 mg/kg) is 48%. The Percent cholesterol lowering in the series on male Spraque-Dawley rats (dose 0.1 mg/kg) stood at 56%. In the series with male Spraque-Dawley rats (dose 0.3 mg/kg), this compound returned a Percent cholesterol lowering of 81%. For the same compound, the “ED30 (the dose required to give 30% inhibition of bile acid uptake)” value in series [1] turned out to be 0.048 mg/kg.

As for `CCCCC1(CC)CN(c2ccccc2)c2cc(Br)c(O)cc2S(=O)(=O)C1` (stereo not drawn) [Example A, 2,3,4,5-tetrahydro-3-ethyl-3-butyl-5-phenyl-7-bromo-8-hydroxy-1,5-benzothiazepine-1,1-dioxide, reference compound], the values for the Percent cholesterol lowering in the series on male Spraque-Dawley rats (dose 0.03 mg/kg), in the series with male Spraque-Dawley rats (dose 0.1 mg/kg) and in the series with male Spraque-Dawley rats (dose 0.3 mg/kg) were 14%, 17% and 53%, respectively. In addition, the “ED30 (the dose required to give 30% inhibition of bile acid uptake)” value in series [1] is 0.17 mg/kg.
